Test results from ChEMBL document CHEMBL5726444, “Pyrazole derivative” (2017).

Target: cAMP and cAMP-inhibited cGMP 3',5'-cyclic phosphodiesterase 10A (Homo sapiens, UniProt Q9Y233)
Assay: Phosphodiersterase Evaluation Assay: IMAP TR-FRET Phosphodiersterase Evaluation Assay Kit (Molecular Device) was used for the measurement. Ten μL of a diluted test compound having each concentration and 5 μL of the enzyme PDE10 (BPA Bioscience) that had been diluted to 2 ng/mL with 1×IMAP Reaction Buffer (prepared with 5×included with the kit, 10 mM Tris-HCl, pH=7.2, 10 mM MgCl2, 0.05% NaN3, and 0.1% BSA) containing 0.1% BSA were added to a 384-well plate (Corning). The obtained mixture was then pre-incubated at room temperature for 5 minutes. Thereafter, 5 μL of cAMP substrate solution which was included with the kit and diluted to 400 nM with 1×IMAP Reaction Buffer containing 0.1% BSA, was added to the reaction solution, and the obtained mixture was reacted at room temperature for 60 minutes. Thereafter, 60 μL of an IMAP TR-FRET Binding solution included with the kit was further added to the reaction solution, and the obtained mixture was then left for 3 hours or more. Subsequently, using ARVO SX (PerkinElmer), the fluorescent intensity of Terbium (Emission=490 nm) and TR-FRET (Emission=520 nm) in the reaction solution were measured at an excitation wavelength of 340 nm, so as to calculate the amount of the generated 5′-AMP. […]

cAMP and cAMP-inhibited cGMP 3',5'-cyclic phosphodiesterase 10A, sequence (Q9Y233 whole entry): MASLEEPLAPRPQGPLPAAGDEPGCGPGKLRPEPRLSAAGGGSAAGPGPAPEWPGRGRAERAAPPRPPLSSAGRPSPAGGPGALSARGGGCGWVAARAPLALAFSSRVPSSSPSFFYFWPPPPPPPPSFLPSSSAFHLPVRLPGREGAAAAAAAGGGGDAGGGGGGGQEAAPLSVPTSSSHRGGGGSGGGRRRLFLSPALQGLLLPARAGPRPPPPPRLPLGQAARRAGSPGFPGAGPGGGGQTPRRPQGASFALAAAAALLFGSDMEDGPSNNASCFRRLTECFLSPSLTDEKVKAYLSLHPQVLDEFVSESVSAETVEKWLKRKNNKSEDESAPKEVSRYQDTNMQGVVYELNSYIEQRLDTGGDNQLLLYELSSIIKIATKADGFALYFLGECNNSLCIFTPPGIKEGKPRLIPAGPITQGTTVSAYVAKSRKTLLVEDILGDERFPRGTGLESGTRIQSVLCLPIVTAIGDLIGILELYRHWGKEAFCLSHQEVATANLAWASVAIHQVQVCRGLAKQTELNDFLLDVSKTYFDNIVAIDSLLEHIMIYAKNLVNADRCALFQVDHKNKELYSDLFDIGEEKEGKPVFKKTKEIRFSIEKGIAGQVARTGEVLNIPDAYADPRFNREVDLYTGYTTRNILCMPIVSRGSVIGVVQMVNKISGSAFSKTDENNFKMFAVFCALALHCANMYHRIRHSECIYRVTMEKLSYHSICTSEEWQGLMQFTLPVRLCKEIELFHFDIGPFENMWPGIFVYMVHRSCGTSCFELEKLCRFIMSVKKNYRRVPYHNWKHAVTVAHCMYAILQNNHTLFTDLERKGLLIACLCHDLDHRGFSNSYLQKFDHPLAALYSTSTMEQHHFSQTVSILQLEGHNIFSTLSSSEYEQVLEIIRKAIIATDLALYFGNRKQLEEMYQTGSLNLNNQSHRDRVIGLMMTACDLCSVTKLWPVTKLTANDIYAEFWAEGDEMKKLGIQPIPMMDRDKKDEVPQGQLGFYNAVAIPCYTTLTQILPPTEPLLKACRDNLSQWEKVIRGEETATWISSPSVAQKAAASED

## Cc1cccc(-c2cnn(C)c2C(=O)Nc2cc3nc(N4CCC[C@@H]4C(F)(F)F)nn3cc2F)n1
  IC50: < 5 nM
